Consider nine compounds from PubChem BioAssay (NCI).

Some test systems named below: SR leukemia; HS 578T breast; UACC-62 melanoma; SN12C renal; BT-549 breast; MCF7 breast; ACHN renal; RPMI-8226 leukemia; SNB-75 CNS; HCC-2998 colon.
Holding throughout (assay): inhibition of tumour cell growth, NCI panel, 48 h

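96-well plates; 48 h exposure; 5 concentrations. Endpoints by linear interpolation between flanking doses. Not reached: highest tested concentration assigned. GI50 = concentration required for 50% inhibition of growth. At the TGI there is no net growth.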

With `CCOC(=O)c1c(CN2CCCCC2)nc2ccc(Cl)cc2c1-c1ccccc1`, the GI50 in the assay on SR leukemia was 15.7 µM; in the assay with HS 578T breast it was 27.1 µM; with UACC-62 melanoma it was 17.2 µM; in the assay on SN12C renal, 20.3 µM; with BT-549 breast it was 39.5 µM; in the assay with MCF7 breast it was 18.6 µM. The GI50 is 16.9 µM with ACHN renal, 20.4 µM in the assay with RPMI-8226 leukemia, 47.7 µM with SNB-75 CNS and 19.1 µM in the assay on HCC-2998 colon. In addition, the TGI is 43.4 µM in the assay with SR leukemia; 75.1 µM in the assay on HS 578T breast; 38.1 µM with UACC-62 melanoma; 45 µM with SN12C renal; greater than 100 µM with BT-549 breast; 41.2 µM with MCF7 breast. Also, the TGI is 35 µM in the assay on ACHN renal, 46.2 µM in the assay with RPMI-8226 leukemia, greater than 100 µM in the assay with SNB-75 CNS and 35.8 µM in the assay with HCC-2998 colon.

With `COc1cc(OC)c(/C=C/S(=O)(=O)Cc2ccc(OC)c(N)n2)c(OC)c1`, the GI50 was less than 0.01 µM in the assay with SR leukemia; less than 0.01 µM in the assay on HS 578T breast; less than 0.01 µM with UACC-62 melanoma; less than 0.0171 µM in the assay on SN12C renal; less than 0.01 µM in the assay on BT-549 breast; less than 0.01 µM with MCF7 breast. Moreover, the GI50 in the assay on ACHN renal was less than 0.01 µM; in the assay with RPMI-8226 leukemia, less than 0.0172 µM; with HCC-2998 colon, less than 0.0193 µM. The TGI with SR leukemia, in the assay on HS 578T breast, in the assay on UACC-62 melanoma, with SN12C renal, in the assay with BT-549 breast and with MCF7 breast was greater than 100 µM each time. Moreover, the TGI in the assay on ACHN renal is greater than 100 µM; in the assay with RPMI-8226 leukemia it was greater than 85.9 µM; with SNB-75 CNS, greater than 100 µM; in the assay with HCC-2998 colon it was greater than 100 µM.

Consider `COc1cccc(/C=C\C(=O)c2ccccc2)c1`, for which the GI50 is 8.89 µM in the assay with SR leukemia; 4.15 µM with HS 578T breast; 13.3 µM in the assay with UACC-62 melanoma; 8.97 µM with SN12C renal; 10.8 µM in the assay with BT-549 breast; 2.57 µM in the assay with MCF7 breast. In addition, the GI50 with ACHN renal was 7.34 µM; with RPMI-8226 leukemia, 16.2 µM; in the assay with SNB-75 CNS, 8.9 µM; in the assay with HCC-2998 colon, 8.72 µM. Also, the TGI with SR leukemia was greater than 100 µM; in the assay on HS 578T breast, 27.7 µM; in the assay with UACC-62 melanoma it was 29 µM; with SN12C renal it was 25.5 µM; in the assay on BT-549 breast it was 24.3 µM; with MCF7 breast, 18.6 µM. The TGI was 23.4 µM in the assay on ACHN renal, greater than 100 µM with RPMI-8226 leukemia, 23 µM with SNB-75 CNS and 25.7 µM with HCC-2998 colon.

Consider `COc1cc([C@H]2OC[C@@H]3C(c4cc(OC)c5c(c4)OCO5)OC[C@H]23)cc(OC)c1OC` (stereo partly drawn), for which the TGI in the assay on SR leukemia, in the assay with HS 578T breast, in the assay on UACC-62 melanoma, in the assay on BT-549 breast, in the assay with MCF7 breast and in the assay with ACHN renal was greater than 100 µM each time. For the same compound, the TGI in the assay on RPMI-8226 leukemia, in the assay on SNB-75 CNS and with HCC-2998 colon was greater than 100 µM in each case.

On to `COc1cc2c3c(c4ccc(O)cc4c2cc1OC)[C@@H](O)[C@@H]1CCCN1C3`, for which the TGI is 0.215 µM in the assay with SR leukemia; 0.00566 µM with HS 578T breast; 0.0807 µM in the assay on UACC-62 melanoma; 0.00932 µM with SN12C renal; 0.027 µM in the assay on BT-549 breast; less than 0.001 µM in the assay on MCF7 breast. Further, the results for the TGI with ACHN renal, in the assay on RPMI-8226 leukemia and in the assay on HCC-2998 colon were 0.0381 µM, 0.00384 µM and 0.002 µM, respectively.

For the compound `CN(N=O)c1ccc(/C=C/c2ccnc3ccccc23)cc1`, the TGI in the assay with SR leukemia, in the assay with HS 578T breast, in the assay with UACC-62 melanoma, with SN12C renal, in the assay with BT-549 breast and in the assay with MCF7 breast was greater than 100 µM in each case. In addition, the TGI in the assay with ACHN renal and with SNB-75 CNS was greater than 100 µM each time.

With `COC(=O)[C@]12CC[C@@H](C)[C@H](C)[C@@H]1C1=CC[C@@H]3[C@@]4(C)C[C@@H](OC(C)=O)[C@H](OC(C)=O)[C@@](C)(COC(C)=O)[C@@H]4[C@H](O)C[C@@]3(C)[C@]1(C)CC2`, the GI50 with SR leukemia was 0.465 µM; in the assay with HS 578T breast, 8.15 µM; in the assay on BT-549 breast, 1.4 µM; in the assay on MCF7 breast, 1.57 µM; in the assay with ACHN renal, 2.71 µM; in the assay with RPMI-8226 leukemia it was 1.04 µM. In addition, the GI50 is 4.32 µM in the assay with SNB-75 CNS and 2.81 µM in the assay on HCC-2998 colon. The TGI is 9.4 µM with SR leukemia; greater than 100 µM in the assay with HS 578T breast; 81.4 µM in the assay with BT-549 breast; 27.9 µM in the assay with MCF7 breast; greater than 100 µM in the assay on ACHN renal; greater than 100 µM with RPMI-8226 leukemia. The TGI in the assay with SNB-75 CNS and in the assay with HCC-2998 colon was greater than 100 µM throughout.

As for `O=C1c2ccccc2-c2cn(Cc3ccccc3)c3cccc(c23)C1c1cccnc1` (stereo not drawn), the GI50 in the assay on SR leukemia is 1.78 µM; in the assay with HS 578T breast it was 2.92 µM; in the assay on UACC-62 melanoma it was 2.73 µM; in the assay on SN12C renal, 3.08 µM; in the assay with BT-549 breast, 6.62 µM; with MCF7 breast, 1.64 µM. In addition, the GI50 is 12.1 µM in the assay with ACHN renal, 1.38 µM with SNB-75 CNS and 11.4 µM in the assay on HCC-2998 colon. The TGI was greater than 50 µM with SR leukemia; 45 µM in the assay with HS 578T breast; greater than 50 µM in the assay on UACC-62 melanoma; greater than 50 µM in the assay on SN12C renal; greater than 50 µM in the assay on BT-549 breast; greater than 50 µM in the assay on MCF7 breast. The TGI in the assay on ACHN renal was greater than 50 µM; in the assay with SNB-75 CNS, 26 µM; with HCC-2998 colon, greater than 50 µM.

`COc1ccc2c(Cl)cc(NC(=S)Nc3ccccc3)nc2c1`: the TGI with SR leukemia is 74.5 µM; in the assay with HS 578T breast, 37.3 µM; with UACC-62 melanoma, 46.4 µM; in the assay on SN12C renal, greater than 100 µM; in the assay on BT-549 breast it was greater than 100 µM; in the assay on MCF7 breast it was greater than 100 µM. The TGI in the assay with ACHN renal was greater than 100 µM; with RPMI-8226 leukemia, 59.9 µM; in the assay on SNB-75 CNS, 52.1 µM.
